The values below come from US6673778B1, “Enzyme inhibitors for metabolic redirection” (The Board of Regents of the University of Nebraska, priority 1996, dated 2004).

Marks after values point to notes of the source that are not given here.

For one series, the system named is CYP2B1 protein. Kind of series: ELISA for CYP2B1 protein in liver microsomes. The following applies: for HRP activity (CYP2B1 ELISA): liver microsomes. As to the method:
(§1) Rats were injected intraperitoneally (i.p.) with the indicated ODNs (see Table 3) once per day for 2 days, in an amount of lmg/kg body weight per injection. Control rats were injected with saline only. Rats in the “PB” groups were injected i.p. with phenobarbital (Mallinckrodt, St. Louis) at 80 mg/kg body weight per injection, once per day for 2 days. In the groups in which PB was co-administered with ODN, injections were administered simultaneously. Total volume of injections for all groups was […]. Animals in the “2B1-NRM+PB+PRETREATMENT” group also received a dose of 1 mg/kg of 2B1-NRM oligomer (SEQ ID NO: 17) 24 hours prior to the first administration of 2B1-NRM plus PB.
Microsomes were prepared, as described by Franklin and Estabrook (Arch. Biochem. Biophys. 143:318-29, 1971), for determination of enzyme level and activity. The rats were sacrificed using ethyl ether, and livers were perfused with 12 ml of 4% saline via the portal vein and then removed from the animal. The livers were minced, homogenized in 0.25 M sucrose (Sigma) and centrifuged at 8000×G for 20 minutes at 4° C. in a Sorvall RC2-B centrifuge (Dupont). The supernatant was saved, resuspended in 0.25 M sucrose, and centrifuged at 100,000×G for 45 minutes at 4° C. in a Sorvall OTD55B ultracentrifuge (Dupont). The pellet was resuspended in 1.15% KCl (Sigma) and centrifuged at 100,000×G for 1 hour at 4° C. The final pellet was resuspended in an equal volume buffer (10 mM Tris-acetate, 1 mM EDTA, 20% glycerol; Sigma) and frozen at −80° C.
Direct measurement of CYP2B1 protein was performed by an ELISA assay, using an antibody directed to the CYP2B1 protein (Schuurs and Van Weeman, Clin Chim Acta 81(1):1-40, 1977). Fifty μg of microsomal proteins per well were plated in 100 μl 0.35% sodium bicarbonate buffer overnight on a 96 well nunc-immuno plate (InterMed, Skokie, Ill.). The microsomes were washed 3× with 1% bovine serum albumin in PBS (PBS/BSA) and incubated for 1 hr at 37° C. with 200 μl PBS/BSA. The PBS/BSA was removed, and 50 μl of CYP2B1 antibody (Oxygene, Dallas) was added and incubated for 1 hour at 37° C. The microsomes were washed 5× with saline/Tween 20™ (Sigma), and 50 μl horseradish peroxidase (HRP)-conjugated secondary antibody (Bio-Rad) was added. The microsomes were incubated for 1 hour at 37° C., then washed 5× with saline/Tween 20™ and twice with 85% saline. HRP substrate (Kirkegaard & Perry Labs, Gaithersburg, Md.) (100 μl) was added, and the absorbance at 405 nm was read continuously in a microplate reader (Molecular Devices) for 1 hour. Results were recorded as HRP activity in mOD/min.

The test system of another series is CYP2B1. Kind of series: PROD assay of liver microsomes (CYP2B1 enzyme activity). The series is classed as in vivo, rat. The following applies: ODN alone. As to the method:
Control rats were injected with saline only.
CYP2B1 enzyme activity was determined by pentoxyresorufin O-dealkylation (PROD) activity (Burke et al., 1985). For each microsomal sample, 1 mg protein in 1 ml 0.1 M potassium phosphate buffer, 1 ml 2 μM 5-pentoxyresorufin (Pierce, Rockford, Ill.), and 17 μl 60 mM NADPH were mixed and incubated for 10 minutes at 37° C. The mixture was then added to a 2 ml cuvette and read on a RF5000U spectrofluorophotometer (Shimadzu, Columbia, Md.), using an excitation wavelength of 530 nm and emission wavelength of 585 nm. Concentrations were calculated from a calibration curve of resorufin standards (Pierce, Rockford, Ill.). Results were recorded in nmol resorufin/mg protein/min.

The test system of another series is CYP2B1 mRNA. Kind of series: Melting temperature (Tm) of ODNs used in Example 1. Format: physicochemical, rat. The source says: The oligo 2B1-ATG (SEQ ID NO: 16) is a 22-mer having 100% complementarity to a region containing the AUG start codon on the rat CYP2B1 mRNA (SEQ ID NO: 39, shown below Table). The oligo 2B1-NRM (SEQ ID NO: 17) has 100% complementarity to the CYP2B1 mRNA starting at base 855. The oligo 2B1-BPB (SEQ ID NO: 36) has the sequence of 2B1-NRM with a two base deletion (indicated in bold in the 2B1-NRM sequence). Each of the oligos 2B1-3MM (SEQ ID NO: 37) and 2B1-CMM (SEQ ID NO: 38) has 2 bases reversed (indicated in bold) compared to the BPB sequence. […] The table gives the melting temperature (Tm), molecular weight, and % homology to CYP2B1 mRNA of each sequence.

A further series deals with rat CYP2B1. Kind of series: Hexobarbital sleep time in rats. Format: in vivo. How it is done:
Male Sprague-Dawley rats (Sasco, Omaha) weighing between 210 to 290 grams were used for all studies. They were housed in animal quarters at the University of Nebraska Medical Center AAALAC-approved Animal Resource Facility. The animals were exposed to 12 hour light/dark cycle and fed Purina rat chow and tap water ad libitum.
as §1
Forty-eight hours following the first (non-pretreatment) injection of ODN and/or PB, the rats were injected i.p. with 100 mg/kg body weight hexobarbital (Sigma, St. Louis), in a total volume of 1 ml/kg body weight, prepared fresh daily. Sleep time, defined as the time period from when the rat is placed on its back to when it regains its righting reflex, was measured. Sleep times are given in Table 5 as the mean of each animal in the group ±standard deviation.

The subject of the next series is CYP2E1. The series is described as follows: Microsomal PNP (p-nitrophenol hydroxylase) activity. The series is classed as in vivo, rat. The following applies: liver microsomes. As to the method: Microsomal PNP (p-nitrophenol hydroxylase) activity was used as a measure of induction of CYP2E1, as PB is known to induce many different CYPs, including CYP2E1. CYP2E1 activity was determined by PNP activity as described in Reinke and Moyer, Drug Metab. Dispos. 13:548-52, 1985; Koop, Mol. Phannacol. 29:399404, 1986). Activity was recorded as optical density (OD) per milligram of protein per minute.

The mark [1] stands for this setting: treatment alone (ODN 1 mg/kg or PB 80 mg/kg i.p. once per day for 2 days), hexobarbital 100 mg/kg i.p. at 48 h.
Setting [2] is: ODN + PB 80 mg/kg injected simultaneously, 2 days, hexobarbital 100 mg/kg i.p.

In the case of “2B1-3MM (antisense AAAGAAGAGAGAGCAGGGGA; chemistry not given here)”, in the series with CYP2B1 protein (treatment alone), the “HRP activity (CYP2B1 ELISA)” value stood at 9.2 ± 5.0 mOD/min and the “HRP activity versus control (in words)” value is given as “no change in HRP activity over control microsomes”. In addition, the “PROD activity versus control (in words)” value in the series with CYP2B1 is listed as “no change from control”. Also, the Tm in the series on CYP2B1 mRNA is 49.8 °C. In addition, the “Effect on hexobarbital sleep time (in words)” value (“Effect” for short) in the series with rat CYP2B1 (ODN alone, versus control) was “slightly lengthened sleep time over the control”. For the same compound, the “Sleep time, Percent of Control” value with rat CYP2B1 (treatment alone) is on record as 132.4% of Control. Moreover, the “Sleep Time (min ± sd)” value with rat CYP2B1 (setting [1]) is listed as 31.0 ± 9.6 min. In the series on CYP2E1 (treatment alone), the “PNP activity versus control (in words)” value is on record as “no significant differences in PNP activities from control values”.
Regarding “2B1-ATG (antisense GGAGCAAGATACTGGGCTCCAT; chemistry not given here)”, the “HRP activity versus PB-alone group (in words)” value in the series with CYP2B1 protein (ODN + PB) was “a significant decrease in HRP activity over the PB-alone group”. Also, the entries for the “HRP activity (CYP2B1 ELISA)” value with CYP2B1 protein (ODN + PB) and in the series on CYP2B1 protein (treatment alone) were 12.9 ± 5.0 mOD/min and 13.2 ± 4.4 mOD/min, respectively. In addition, in the series with CYP2B1 protein (treatment alone), the “HRP activity versus control (in words)” value was “no change in HRP activity over control microsomes”. Further, in the series on CYP2B1, the “PROD activity versus control (in words)” value is on record as “no change from control”. In addition, the Tm in the series with CYP2B1 mRNA was determined as 68.0 °C. The “Sleep time, Percent of Control” value is recorded as 82.5% of Control in the series with rat CYP2B1 (ODN + PB) and 87.6% of Control in the series on rat CYP2B1 (treatment alone). The figures for the “Sleep Time (min ± sd)” value with rat CYP2B1 (setting [2]) and with rat CYP2B1 (setting [1]) were 19.3 ± 4.4^b min and 20.5 ± 5.3 min, respectively. Further, the “Effect” value in the series with rat CYP2B1 (ODN + PB, versus PB group) was “sleep time increased significantly over that of the PB group”; with rat CYP2B1 (ODN alone, versus control), “did not significantly alter sleep time over control”. Moreover, the “PNP activity versus control (in words)” value in the series with CYP2E1 (ODN + PB) is listed as “significant increases in PNP activities over that of control”; in the series on CYP2E1 (treatment alone), “no significant differences in PNP activities from control values”.
“2B1-CMM (antisense AAAGAAGAGAAGGCAGGGAG; chemistry not given here)”: in the series on CYP2B1 protein (treatment alone), the “HRP activity (CYP2B1 ELISA)” value is given as 10.1 ± 3.3 mOD/min and the “HRP activity versus control (in words)” value is given as “no change in HRP activity over control microsomes”. Also, the “PROD activity versus control (in words)” value with CYP2B1 is given as “no change from control”. Further, the Tm in the series on CYP2B1 mRNA came out at 49.5 °C. Further, the “Effect” value in the series on rat CYP2B1 (ODN alone, versus control) is given as “did not significantly alter HB sleep time from the control”. In addition, in the series on rat CYP2B1 (treatment alone), the “Sleep time, Percent of Control” value is reported as 98.2% of Control. Besides, the “Sleep Time (min ± sd)” value with rat CYP2B1 (setting [1]) is 23.0 ± 5.3 min. In the series on CYP2E1 (treatment alone), the “PNP activity versus control (in words)” value is on record as “no significant differences in PNP activities from control values”.
Consider “2B1-NRM (antisense AAAGAAGAGAGAGAGCAGGGAG; chemistry not given here)”, for which the “HRP activity versus PB-alone group (in words)” value in the series with CYP2B1 protein (ODN + PB) and in the series with CYP2B1 protein (ODN + PB + pretreatment) was “a decrease in HRP activity over that of the PB-alone treatment group” each time. The figures for the “HRP activity (CYP2B1 ELISA)” value with CYP2B1 protein (ODN + PB), in the series on CYP2B1 protein (ODN + PB/Pretreatment) and in the series with CYP2B1 protein (treatment alone) were 17.9 ± 4.6 mOD/min, 18.7 ± 0.3 mOD/min and 13.8 ± 5.6 mOD/min, respectively. Besides, in the series with CYP2B1 protein (treatment alone), the “HRP activity versus control (in words)” value is reported as “no change in HRP activity over control microsomes”. For the same compound, the “PROD activity versus control (in words)” value in the series on CYP2B1 was “no change from control”. For the same compound, the Tm with CYP2B1 mRNA was 50.6 °C. Moreover, the “Sleep time, Percent of Control” value in the series with rat CYP2B1 (ODN + PB) is given as 57.7% of Control; in the series on rat CYP2B1 (ODN pretreatment + PB) it was 56.8% of Control; with rat CYP2B1 (treatment alone), 98.2% of Control. Also, the “Sleep Time (min ± sd)” value with rat CYP2B1 (setting [2]) is recorded as 13.5 ± 0.9 min; in the series with rat CYP2B1 (ODN pretreatment one day before ODN + PB, 2 days, hexobarbital 100 mg/kg i.p.) it was 13.3 ± 3.0 min; in the series with rat CYP2B1 (setting [1]), 23.0 ± 3.2 min. Besides, the “Effect” value in the series with rat CYP2B1 (ODN + PB, versus PB group) is “no observable antisense effect”; in the series on rat CYP2B1 (ODN alone, versus control) it was “no effect on sleep time compared to control”; in the series on rat CYP2B1 (ODN pretreatment + PB), “essentially the same as without pretreatment”. Moreover, the results for the “PNP activity versus control (in words)” value with CYP2E1 (ODN + PB), in the series on CYP2E1 (ODN + PB + pretreatment) and with CYP2E1 (treatment alone) were “significant increases in PNP activities over that of control”, “significant increases in PNP activities over that of control” and “no significant differences in PNP activities from control values”, respectively.
As for `CCC1(c2ccccc2)C(=O)NC(=O)NC1=O` [Phenobarbital (PB), phenobarbital, reference compound], in the series on CYP2B1 protein (treatment alone), the “HRP activity (CYP2B1 ELISA)” value was 22.5 ± 4.2 mOD/min and the “HRP activity versus control (in words)” value is listed as “significantly greater than the activity of microsomes from control rats”. Further, the “Sleep time, Percent of Control” value with rat CYP2B1 (treatment alone) is 48.7% of Control. Besides, in the series on rat CYP2B1 (setting [1]), the “Sleep Time (min ± sd)” value is recorded as 11.4 ± 4.5^a min. The “Sleep Time (min ± sd)” value in the series with rat CYP2B1 (treatment alone (ODN 1 mg/kg or PB 80 mg/kg i.p. once per day for 2 days), hexobarbital 100 mg/kg i.p. at 48 h, listed as PB) is recorded as “about 11.4 min”. For the same compound, the “PNP activity versus control (in words)” value in the series with CYP2E1 (treatment alone) is listed as “significant increases in PNP activities over that of control”.
